A word on the EC50: it is the concentration giving half of the maximal effect. Low readings indicate higher potency in that assay, high ones lower potency in that assay.

Bounds are passed on as bounds.

In ChEMBL document CHEMBL1138934, “Indenone derivatives: a novel template for peroxisome proliferator-activated receptor gamma (PPARgamma) agonists” (J Med Chem, 2006) one finds EC50 data, which are given here for nine molecules.

For test [1], the target named is T1, Peroxisome proliferator-activated receptor gamma (Homo sapiens, UniProt P37231).
T1 sequence (P37231 whole entry): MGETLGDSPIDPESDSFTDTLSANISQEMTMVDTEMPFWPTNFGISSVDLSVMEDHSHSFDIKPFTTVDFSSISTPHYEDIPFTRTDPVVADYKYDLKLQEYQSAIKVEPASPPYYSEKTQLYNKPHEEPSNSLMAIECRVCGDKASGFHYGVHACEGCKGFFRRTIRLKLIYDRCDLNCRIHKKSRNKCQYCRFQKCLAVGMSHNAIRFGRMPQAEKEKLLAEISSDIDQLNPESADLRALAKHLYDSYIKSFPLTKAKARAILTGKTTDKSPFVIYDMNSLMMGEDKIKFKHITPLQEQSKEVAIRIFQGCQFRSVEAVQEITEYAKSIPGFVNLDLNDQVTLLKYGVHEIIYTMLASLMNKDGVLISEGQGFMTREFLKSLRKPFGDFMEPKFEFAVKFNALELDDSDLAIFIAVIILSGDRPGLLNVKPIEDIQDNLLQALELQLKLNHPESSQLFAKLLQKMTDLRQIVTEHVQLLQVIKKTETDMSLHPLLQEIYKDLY
Description: Activity at human PPAR gamma transfected in NIH3T3 cells by luciferase activity assay

Test [2] has as its target T2, Peroxisome proliferator-activated receptor alpha (Homo sapiens, UniProt Q07869).
T2 sequence (Q07869 whole entry): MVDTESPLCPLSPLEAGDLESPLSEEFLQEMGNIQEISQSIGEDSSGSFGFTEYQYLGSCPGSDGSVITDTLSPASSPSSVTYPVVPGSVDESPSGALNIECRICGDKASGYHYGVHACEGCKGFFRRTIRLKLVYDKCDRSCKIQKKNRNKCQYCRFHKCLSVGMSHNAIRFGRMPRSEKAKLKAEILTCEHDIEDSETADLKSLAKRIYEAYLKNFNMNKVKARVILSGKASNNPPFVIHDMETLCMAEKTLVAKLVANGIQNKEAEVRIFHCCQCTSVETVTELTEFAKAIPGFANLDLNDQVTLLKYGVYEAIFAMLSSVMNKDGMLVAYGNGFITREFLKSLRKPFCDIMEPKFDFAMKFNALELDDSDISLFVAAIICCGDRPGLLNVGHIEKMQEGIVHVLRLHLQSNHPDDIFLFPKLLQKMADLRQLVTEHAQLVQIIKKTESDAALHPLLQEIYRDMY
Description: Activity at human PPAR alpha.

`CCOC(=O)C1=C(c2ccoc2)c2ccc(OC)cc2C1=O`: the response in test [1] was half-maximal at 1 µM (EC50).

With `CCOC(=O)C1=C(c2ccccc2)c2ccc(OC)cc2/C1=N/O`, in test [1], the concentration giving a half-maximal response (EC50) is more than 10 µM.

In test [1], `CCOC(=O)C1=C(c2ccccc2)c2ccc(OCCc3ccccc3)cc2C1=O` registered an EC50 of 0.21 µM. `CCOC(=O)C1=C(c2ccccc2)c2ccc(OCCCc3ccccc3)cc2C1=O` returned an EC50 in test [1] of 0.05 µM. The molecule `CCOC(=O)CC1=C(c2ccccc2)c2ccc(OC)cc2C1=O` had a 50% effective concentration (EC50) in test [1] of 0.3 µM. With `CCOC(=O)C1=C(c2ccccc2)c2ccc(OC)cc2C1=O`, the half-maximal effective concentration (EC50) in test [2] is more than 100 µM; in test [1] it was 0.3 µM. In test [1], `CCOC(=O)C1=C(C23CC4CC(CC(C4)C2)C3)c2ccc(OC)cc2C1=O` registered a 50% effective concentration (EC50) of 2.5 µM.

`CCOC(=O)C1=C(c2ccccc2)c2ccc(OC)cc2C1`: in test [1], the EC50 was more than 10 µM. Molecule `CCOC(=O)C1=C(c2ccccc2)c2ccc(OCc3ccccc3)cc2C1=O` showed an EC50 in test [1] of 0.22 µM.
